Target: T1, STK32C (YANK3) (Homo sapiens, UniProt Q86UX6)
T1 construct: purchased Thermo Fisher Scientific (Life Technologies) SelectScreen
Assay: SelectScreen LanthaScreen
Format: binding
Conditions: read-out: % displacement
Procedure, shortened: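 NU5455 was profiled across the SelectScreen Broad panel of kinase activity and binding assays. Z'LYTE reactions such as CSF1R ran at apparent Km ATP, while the Adapta CAMK1 assay used ATP listed as 10. Values are given as percent.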

T1 sequence (Q86UX6 whole entry): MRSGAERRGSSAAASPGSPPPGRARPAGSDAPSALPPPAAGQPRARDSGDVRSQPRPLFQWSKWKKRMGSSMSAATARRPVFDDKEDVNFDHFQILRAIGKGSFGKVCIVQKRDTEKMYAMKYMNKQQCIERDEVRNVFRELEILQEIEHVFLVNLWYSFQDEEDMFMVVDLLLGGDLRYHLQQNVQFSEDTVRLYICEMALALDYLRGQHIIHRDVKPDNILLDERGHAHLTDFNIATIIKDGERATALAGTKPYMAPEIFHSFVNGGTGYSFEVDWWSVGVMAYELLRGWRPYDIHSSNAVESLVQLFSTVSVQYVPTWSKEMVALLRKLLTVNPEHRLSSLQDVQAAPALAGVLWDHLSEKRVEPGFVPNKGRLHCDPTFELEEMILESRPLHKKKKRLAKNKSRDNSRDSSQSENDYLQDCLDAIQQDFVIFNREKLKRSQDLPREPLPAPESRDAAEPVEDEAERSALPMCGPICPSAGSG

Structure (SMILES): CN(C(=O)CN1CCOCC1)c1ccc2sc3c(-c4cccc5c(=O)cc(N6CC7CCC(C6)O7)oc45)cccc3c2c1 [NU5455]
- inhibition at 1 µM: 4.2%

Reference: publication PMC6934184, “Selective DNA-PKcs inhibition extends the therapeutic index of localized radiotherapy and chemotherapy” (The Journal of Clinical Investigation, 2019)
